# Laboratory results as given in patent US11459298B2, “Class of dicationic compounds as well as the preparative method and the use thereof” (WEST CHINA HOSPITAL, SICHUAN UNIVERSITY, priority 2018, dated 2022).
# Assays:
# [1] = tested on: New Zealand white rabbits; assay: Experiment on muscle relaxation in anesthetized rabbits (TOF neuromuscular transmission monitor); type: in vivo, rabbit; conditions: for ED (2 x ED95): Oryctolagus cuniculus, intravenous injection, propofol anesthesia; for ED (2 x ED95) / Onset time / Recovery time: N = 8; for Onset time: TOF=0, after i.v. 2× ED95 equivalent dose; for Recovery time: TOF=90%, after i.v. 2× ED95 equivalent dose; for change characteristics of TOF 1-4 after administration: depolarizing vs non-depolarizing pattern
# Procedure: Male New Zealand white rabbits weighing 2-3.5 kg were used as experimental animals for muscle relaxation test. The specific procedures were: propofol emulsion was intravenously administrated to induce and maintain general anesthesia (induction dose: 10 mg/kg; maintenance dose: […]). Tracheal intubation was carried out and respiratory support was used.
# [2] = tested on: human body; conditions: after single administration, clinical use; cited from earlier work
Molecule,ED (2 x ED95) [1] [mg/kg],Onset time [1] [s],Recovery time [1] [min],duration of muscle relaxation / action time [2] [min],change characteristics of TOF 1-4 after administration [1]
C[N+](CCOC(=O)OCOC(=O)CCC[N+]1(Cc2ccc([N+](=O)[O-])cc2)CCC(F)(F)CC1)(Cc1ccccc1)Cc1ccc([N+](=O)[O-])cc1 (centres unmarked) [Compound 45],0.8,<40,5.1 ± 1.4,,
CC(=O)O[C@H]1C[C@@H]2CC[C@@H]3[C@H](CC[C@@]4(C)[C@H]3C[C@H]([N+]3(C)CCCCC3)[C@@H]4OC(C)=O)[C@@]2(C)C[C@@H]1[N+]1(C)CCCCC1 [pancuronium],,,,> 60,
C[N+](CCOC(=O)OCOC(=O)CCC[N+]1(Cc2ccc([N+](=O)[O-])cc2)CCCCC1)(Cc1ccc(Cl)cc1)Cc1ccc([N+](=O)[O-])cc1 (centres unmarked) [Compound 4],1.4,<40,5.4 ± 0.9,,
C[N+](CCOC(=O)OCOC(=O)CCC[N+]1(Cc2ccc(C(F)(F)F)cc2)CCCCC1)(Cc1ccccc1)Cc1ccc([N+](=O)[O-])cc1 (centres unmarked) [Compound 10],2.4,<40,6.2 ± 0.9,,
C[N+](CCOC(=O)OCOC(=O)CCC[N+]1(Cc2ccc([N+](=O)[O-])cc2)CCCCC1)(Cc1ccc([N+](=O)[O-])cc1)Cc1ccc([N+](=O)[O-])cc1 [Compound 7],1.6,<40,5.2 ± 1.1,,
micuronium,,,,15 to 20,
Cc1ccc(C[N+](C)(CCCCOC(=O)OCOC(=O)C[N+]2(Cc3ccc(C)c(C)c3)CCCCC2)Cc2ccc(C)c(C)c2)cc1C [Compound 13],6.2,<40,6.9 ± 1.7,,
CC1CC[N+](CCCC(=O)OCOC(=O)OCC[N+](C)(Cc2ccccc2)Cc2ccc([N+](=O)[O-])cc2)(Cc2ccc([N+](=O)[O-])cc2)CC1 (centres unmarked) [Compound 35],1,<40,7.2 ± 2.3,,
C[N+](CCOC(=O)OCOC(=O)CCC[N+]1(Cc2ccc([N+](=O)[O-])cc2)CCCCC1)(Cc1ccc(C#N)cc1)Cc1ccc([N+](=O)[O-])cc1 (centres unmarked) [Compound 8],1.7,<40,7.2 ± 1.4,,
C[N+](CCOC(=O)OCOC(=O)CCC[N+]1(Cc2ccc([N+](=O)[O-])cc2)CCCCC1)(Cc1ccc([N+](=O)[O-])cc1)Cc1ccsc1 (centres unmarked) [Compound 38],1.2,<40,4.4 ± 1.1,,
"C[N+](C)(C)CCOC(=O)CCC(=O)OCC[N+](C)(C)C [Succinylcholine, reference compound]",1.8,<40,13.3 ± 3.5,10,decreased in the same proportion until disappearance
C[N+](CCOC(=O)OCOC(=O)CCC[N+]1(Cc2ccc([N+](=O)[O-])cc2)CCCCC1)(Cc1ccc(-c2ccccc2)cc1)Cc1ccc([N+](=O)[O-])cc1 (centres unmarked) [Compound 11],1.5,<40,7.7 ± 1.6,,
C[N+](CCOC(=O)OCOC(=O)CCC[N+]1(Cc2ccc([N+](=O)[O-])cc2)CCCCC1)(Cc1ccc([N+](=O)[O-])cc1)Cc1ccc(C(F)(F)F)cc1 (centres unmarked) [Compound 9],1.6,<40,5.2 ± 1.2,,
C[N+](CCOC(=O)OCOC(=O)COCC[N+]1(Cc2ccc([N+](=O)[O-])cc2)CCCCC1)(Cc1ccccc1)Cc1ccc([N+](=O)[O-])cc1 (centres unmarked) [Compound 19],0.8,<40,4.1 ± 0.8,,
COc1ccc(C[N+](C)(CCOC(=O)OCOC(=O)CCC[N+]2(Cc3ccc(OC)c(OC)c3)CCCCC2)Cc2ccc(OC)c(OC)c2)cc1OC [Compound 12],4.4,<40,6.3 ± 2.1,,
"COc1ccc(C[C@@H]2c3cc(OC)c(OC)cc3CC[N@+]2(C)CCC(=O)OCCCCCOC(=O)CC[N@@+]2(C)CCc3cc(OC)c(OC)cc3[C@H]2Cc2ccc(OC)c(OC)c2)cc1OC [Cisatracurium, reference compound]",0.08,>90,17.6 ± 5.2,,"successively and gradually decreased, rather than in equal proportion"
C[N+](CCOC(=O)OCOC(=O)CCC[N+]1(Cc2ccc([N+](=O)[O-])cc2)CCCCC1)(Cc1ccc(F)cc1)Cc1ccc([N+](=O)[O-])cc1 (centres unmarked) [Compound 3],1.8,<40,4.8 ± 0.5,,
C[N+](CCOC(=O)OCOC(=O)CCC[N+]1(Cc2ccc([N+](=O)[O-])cc2)CCCCC1)(Cc1ccc([N+](=O)[O-])cc1)Cc1c(F)cccc1F (centres unmarked) [Compound 6],0.8,<40,4.1 ± 1.1,,
C[N+](CCOC(=O)OCOC(=O)CCC[N+]1(Cc2ccc([N+](=O)[O-])cc2)CCCCC1)(Cc1ccc([N+](=O)[O-])cc1)Cc1ccc(Cl)cc1Cl (centres unmarked) [Compound 5],1.6,<40,5.2 ± 1.2,,
C[N+](CCCCOC(=O)OCOC(=O)C[N+]1(Cc2ccc([N+](=O)[O-])cc2)CCCCC1)(Cc1ccccc1)Cc1ccc([N+](=O)[O-])cc1 (centres unmarked) [Compound 1],0.8,<40,5.2 ± 1.1,,
C[N+](CCOC(=O)OCOC(=O)C[N+]1(Cc2ccc([N+](=O)[O-])cc2)CCCCC1)(Cc1ccccc1)Cc1ccc([N+](=O)[O-])cc1 (centres unmarked) [Compound 2],0.9,<40,6.4 ± 1.4,,
C[N+](CCOC(=O)OCOC(=O)CCC[N+]1(Cc2ccc([N+](=O)[O-])cc2)CCCC1)(Cc1ccc(F)cc1)Cc1ccc([N+](=O)[O-])cc1 (centres unmarked) [Compound 47],1.4,<40,3.1 ± 0.7,,
